Experimental data as given in patent publication US20140235626A1, “PYRIDINE DERIVATIVES AND A PHARMACEUTICAL COMPOSITION FOR INHIBITING BACE1 CONTAINING THEM” (SHIONOGI & CO., LTD., priority 2011, published 2014).
Where two headings read alike, the source gives them in different places.

Columns and labels:
CYP3A4 = biological target: T1, CYP3A4 (Homo sapiens, UniProt P08684); assay: CYP3A4 fluorescent MBI test; format: in vitro ADME; settings: substrate 7-BFC; pre-reaction time 0 or 30 minutes; compound 0.625-20 μmol/L
T1 construct: host or cells: Escherichia coli (printed 'Escherichia cob')
T1 sequence (P08684 whole entry): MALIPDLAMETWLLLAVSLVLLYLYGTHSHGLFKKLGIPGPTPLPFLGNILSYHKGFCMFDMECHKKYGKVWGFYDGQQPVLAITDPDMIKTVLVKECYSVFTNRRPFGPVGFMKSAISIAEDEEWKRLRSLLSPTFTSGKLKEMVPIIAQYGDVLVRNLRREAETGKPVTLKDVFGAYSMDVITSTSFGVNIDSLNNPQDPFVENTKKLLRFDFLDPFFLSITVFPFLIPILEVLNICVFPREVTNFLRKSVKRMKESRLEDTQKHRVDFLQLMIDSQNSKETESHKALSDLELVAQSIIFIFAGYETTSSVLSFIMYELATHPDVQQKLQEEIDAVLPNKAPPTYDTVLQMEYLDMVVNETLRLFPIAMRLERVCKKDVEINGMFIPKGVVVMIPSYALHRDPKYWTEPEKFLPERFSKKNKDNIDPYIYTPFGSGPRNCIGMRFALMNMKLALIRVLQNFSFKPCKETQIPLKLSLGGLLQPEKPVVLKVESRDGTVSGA
Experimental: The CYP3A4 fluorescent MBI test is a test of investigating enhancement of CYP3A4 inhibition of a compound by a metabolism reaction. 7-benzyloxytrifluoromethylcoumarin (7-BFC) is debenzylated by the CYP3A4 enzyme (enzyme expressed in Escherichia cob) and 7-hydroxytrifluoromethylcoumarin (7-HFC) is produced as a fluorescing metabolite. The test is performed using 7-HFC production reaction as an index.
The reaction conditions are as follows: substrate, 5.6 […], 7-BFC; pre-reaction time, 0 or 30 minutes; reaction time, 15 minutes; reaction temperature, 25° C. […]
An enzyme in a K-Pi buffer (pH 7.4) and a compound of the present invention solution as a pre-reaction solution were added to a 96-well plate at the composition of the pre-reaction. […] Fluorescent values of 7-HFC as a metabolite were measured in each index reaction plate with a fluorescent plate reader (Ex=420 nm, Em=535 nm).
The sample adding DMSO to a reaction system instead of compound of the present invention solution is adopted as a control (100%) because DMSO is used as a solvent to dissolve a compound of the present invention. Remaining activity (%) was calculated at each concentration of the compound of the present invention added as the solution, and IC50 was calculated by reverse-presumption by a logistic model using a concentration and an inhibition rate. […]

Recombinant human BACE-1 = biological target: T2, Recombinant human BACE-1 (Homo sapiens, UniProt P56817); assay: Assay of BACE-1 inhibiting activity; format: biochemical; settings: Recombinant human BACE-1 7.4 nmol/L, substrate peptide 18 nmol/L, pH 5.0, 30° C., 3.5 hours; read-out: IC50 value (50% inhibitory concentration against the enzymatic activity)
T2 construct: purchased R&D Systems
T2 sequence (P56817 46-501): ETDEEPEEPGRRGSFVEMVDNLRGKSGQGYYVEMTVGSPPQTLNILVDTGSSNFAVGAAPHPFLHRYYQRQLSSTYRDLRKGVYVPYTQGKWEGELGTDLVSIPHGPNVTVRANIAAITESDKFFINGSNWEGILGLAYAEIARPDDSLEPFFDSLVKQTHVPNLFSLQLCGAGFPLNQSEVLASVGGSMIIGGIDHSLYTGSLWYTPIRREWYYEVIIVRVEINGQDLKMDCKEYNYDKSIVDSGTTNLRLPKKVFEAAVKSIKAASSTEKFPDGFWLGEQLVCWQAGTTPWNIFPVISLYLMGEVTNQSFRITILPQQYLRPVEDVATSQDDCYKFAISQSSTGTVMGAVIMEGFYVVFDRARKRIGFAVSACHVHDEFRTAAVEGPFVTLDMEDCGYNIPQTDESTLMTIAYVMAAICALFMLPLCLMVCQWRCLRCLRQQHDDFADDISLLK
Experimental: 48.5 μL of substrate peptide solution (Biotin-XSEVNLDAEFRHDSGC-Eu: X=ε-amino-n-capronic acid, Eu=Europium cryptate) was added to each well of 96-hole half-area plate (a black plate: Costar), and after addition of 0.5 μl of the compound of the present invention (DMSO solution) and 1 μl of Recombinant human BACE-1 (R&D Systems), the reaction mixture was incubated at 30° C. for 3.5 hours. The substrate peptide was synthesized by reacting Cryptate TBPCOOH mono SMP (CIS bio international) with Biotin-XSEVNLDAEFRHDSGC (Peptide Institute, Inc.). The final concentrations of the substrate peptide and Recombinant human BACE-1 were adjusted to 18 nmol/L and 7.4 nmol/L, respectively, and the reaction was performed in sodium acetate buffer (50 mmol/L sodium acetate, pH 5.0, 0.008% Triton X-100).
After the incubation for reaction, 50 μl of 8.0 μg/ml Streptavidin-XL665 (CIS bio international) dissolved in phosphate buffer (150 mmol/L K2HPO4—KH2PO4, pH 7:0, 0.008% Triton X-100, 0.8 mol/L KF) was added to each well and left stand at 30° C. for 45 minutes. After then, fluorescence intensity was measured (excitation wavelength: 320 nm, measuring wavelength: 620 nm and 665 nm) using Wallac 1420 multilabel counter (Perkin Elmer life sciences). Enzymatic activity was determined from counting ratio of each wavelength (10,000×Count 665/Count 620) and 50% inhibitory concentration against the enzymatic activity (IC50) was calculated.

[1] = BA test (oral absorption); format: in vivo, mouse or SD rat; settings: plasma; from AUCs of oral (1 to 30 mg/kg) and intravenous (0.5 to 10 mg/kg) administration groups
Experimental: Materials and Methods for Studies on Oral Absorption (1) Animal: mouse or SD rat (2) Breeding conditions: mouse or SD rat is allowed free access to the sterilized tap water and the solid food. […] (6) Evaluation items: blood was collected at the scheduled time, and the plasma concentration of the compound of the present invention was measured by LC/MS/MS (7) Statistical analysis: regarding the transition of the plasma concentration of the compound of the present invention, the area under the plasma concentration-time curve (AUC) was calculated by non-linear least squares program WinNonlin (Registered trademark), and the bioavailability (BA) of the compound of the present invention was calculated from the AUCs of the oral administration group and intravenous administration group

[2] = Metabolism stability test; format: in vitro ADME; settings: pooled human liver microsomes 0.5 mg protein/mL, 1 mmol/L NADPH, 37° C., 30 minutes; 0 minute = 100%
Experimental: Using a commercially available pooled human liver microsomes, a compound of the present invention is reacted for a constant time, a remaining rate is calculated by comparing a reacted sample and an unreacted sample, thereby, a degree of metabolism in liver was assessed.
A reaction was performed (oxidative reaction) at 37° C. for 0 minute or 30 minutes in the presence of 1 mmol/L NADPH in 0.2 mL of a buffer (50 mmol/L Tris-HCl pH 7.4, 150 mmol/L potassium chloride, 10 mmol/L magnesium chloride) containing 0.5 mg protein/mL of human liver microsomes. After the reaction, 50 μL of the reaction solution was added to 100 μL of a methanol/acetonitrile=1/1 (v/v), mixed and centrifuged at 3000 rpm for 15 minutes. The compound of the present invention in the supernatant was quantified by LC/MS/MS, and a remaining amount of the compound of the present invention after the reaction was calculated, letting a compound amount at 0 minute reaction time to be 100%.

[3] = Solubility test (turbidity, JP-I, JP-II); format: physicochemical; settings: kinetic from dmso stock, 2% DMSO, turbidity after 4 hours
Experimental: A 2-fold dilution series (12 points) of a 10 mM solution of a compound of the present invention in DMSO was added to a medium (JP-I, JP-II) (2%), and solubility was assessed by 3 stages (High; >40 μM, Medium; 3-40 μM, Low; <3 μM) from a turbidity after 4 hours.

| Compound | IC50 (Recombinant human BACE-1) [µM] | other results |
| --- | --- | --- |
| C[C@@]1(c2cc(NC(=O)c3ccc(C#N)cn3)ccn2)CCSC(N)=N1 [Compound I-1] | ≤ 1 | CYP3A4 MBI: difference between IC50 values with and without preincubation, positive (+) / negative (−) (CYP3A4): (−) (When the difference was 3 μM or less, this was defined as negative(−)) |
| C[C@@]1(c2cc(NC(=O)c3cnc(OC(F)F)cn3)ccn2)C=CSC(N)=N1 [Compound I-2] | 0.033 | – |
| C#Cc1ccc(C(=O)Nc2ccnc([C@]3(C)CCSC(N)=N3)c2)nc1 [Compound I-8] | 0.078 | – |
| CC#Cc1ccc(C(=O)Nc2ccnc([C@]3(C)CCSC(N)=N3)c2)nc1 [Compound I-9] | ≤ 1 | – |
| C[C@@]1(c2cc(NC(=O)c3ccc(C#N)cn3)ccn2)C=CSC(N)=N1.O=C(O)C(O)C(O)C(=O)O [Compound I-10] | ≤ 1 | bioavailability [1]: 96.7% |
| C=C1C[C@@](C)(c2cc(NC(=O)c3ccc(C(F)F)cn3)ccn2)N=C(N)S1 [Compound I-11] | 0.048 | – |
| CC(F)(F)Oc1ccc(C(=O)Nc2ccnc([C@]3(C)C=CSC(N)=N3)c2)nc1 [Compound I-24] | – | remaining amount of the compound after the reaction [2]: 98% |
| COc1cnc(C(=O)Nc2ccnc([C@]3(C)C=CSC(N)=N3)c2)cn1 [Compound I-47] | – | solubility at 4 h ([3]; pH 1.2, simulated gastric fluid, medium JP-I, read-out: Solubility (3 stages) in JP-I): > 40 µM; solubility at 4 h ([3]; pH 6.8, fassgf or other biorelevant, medium JP-II, read-out: Solubility (3 stages) in JP-II): > 40 µM |
| NC1=N[C@](CF)(c2cc(NC(=O)c3cnc(C(F)F)cn3)ccn2)CCS1 [Compound I-246] | ≤ 1 | – |
| C[C@@]1(c2cc(NC(=O)c3ccccn3)ccn2)CCSC(N)=N1 [Compound I-272] | ≤ 1 | – |
| C[C@@H]1C[C@@](C)(c2cc(NC(=O)c3ccccn3)ccn2)N=C(N)S1 [Compound I-273] | ≤ 1 | – |
| Cc1cnc(C(=O)Nc2ccnc([C@]3(C)C[C@@H](C)SC(N)=N3)c2)cn1 [Compound I-293] | ≤ 1 | – |
| C[C@@H]1C[C@@](C)(c2cc(NC(=O)c3cnccn3)ccn2)N=C(N)S1 [Compound I-294] | ≤ 1 | – |
